These results are taken from patent US20250066356A1, “LRRK2 INHIBITORS” (INTERLINE THERAPEUTICS, INC., priority 2022, published 2025).

The target in test [1] is T1, phosphorylation at Ser935 on wild type LRRK2 overexpressed in recombinant HEK-293T cells (Homo sapiens, UniProt Q5S007).
T1 construct: host or cells: HEK293T, transient transfection
Nature of the test: pS935 LRRK2 Cell Assay (HTRF). As to conditions: LRRK2 inhibition; pS935 LRRK2 in transfected HEK293T cells, 2 hours compound incubation. Format: cell-based. The source says:
The following protocol describes an in-vitro method for measuring phosphorylation at Ser935 on wild type LRRK2 overexpressed in recombinant HEK-293T cells. The method is based on HTRF technology, which combines Fluorescence Resonance Energy Transfer (FRET) with Time-Resolved measurement (TR). Phospho-LRRK2 (Ser935) is detected in a sandwich assay format using two different specific antibodies, one labelled with Eu^3+-Cryptate (donor) and the second with d2 (acceptor). When the fluorophores are in close proximity, excitation of the donor with a light source (flash lamp) stimulates FRET to the acceptor, which in turn fluoresces at a specific wavelength (665 nm). The fluorescence emission at 615 nm from the donor is also measured to allow ratiometric reduction of data. The specific signal is proportional to phospho-LRRK2 (Ser935).
Plasmid transient transfection: DMEM medium, FBS, DPBS, Trans-IT, OPTI-MEM reagents were allowed to warm to room temperature. HEK293T cells were cultured in DMEM+10% FBS complete medium in T150 flasks till around 80% confluency before transfection. Then cells were washed with 10 mL PBS and detached with 3 mL 0.25% typinsin. 30×10E6 HEK293T cells were seeded in DMEM+10% FBS complete medium to a 15 cm dish.
DNA, TransIT-LT1, OPTI-MEM complex were prepared: […] OPTI-MEM was added to a 15 mL cone tube, then […] plasmid was added to OPTI-MEM and mixed, followed by addition of 60 L TransIT-LT1 to the plasmid OPTI-MEM mixture and mixing. The resulting mixture was incubated for 15 minutes.
The above plasmid, DNA and OPTI-MEM mixture was added dropwise to the 15 cm dish, ensuring the drops were evenly distributed. The culture dish was gently rocked back and forth and from left to right to evenly distribute the complex. The transfected dish was incubated for 24 hours at 37° C., and 5% CO2.
Transfected HEK293T was collected in the 15 cm dish. Media was aspirated from tissue culture dish, and washed by dispensing 10 mL 1×DPBS into 15 cm dish. 1×DPBS was aspirated and 3 mL trypsin was dispensed to 15 cm dish. The dish was incubated with trypsin at room temperature for 3 min until the cells were detached. 10 mL of DMEM+10% FBS medium were added to 15 cm dish and triturated to ensure homogenous cell suspensions.
Homogenous cell suspensions were transferred to a 50 mL tube, and centrifuged for 5 minutes at 1,000 rmp/min. The supernatant was aspirated and resuspended with 20 mL complete medium. 1 mL of cell suspension was transferred for cell counting. The cell suspension was diluted to 2×10E5 cells/ml. 50 L cell suspensions were added to a 384-well plate. The plate was quick spun at 800 rpm for 1 minute, then incubate overnight at 37° C., 5% CO2.
Compound dispensing: compound was diluted (10 mM DMSO stock solution) and added to assay plate (top concentration: 10 μM, 3 fold serial dilution, 9 doses) with duplicates by Tecan liquid handler. The DMSO concentration of each well was normalized to 0.2%. Plates were quick spun at 1,000 rpm for 1 minute. Plates were incubated at 37° C., 5% CO2 for 2 hours.
1× lysis buffer solution supplemented with blocking reagent was prepared (e.g. 1 mL lysis buffer 4×+3 mL water+40 L stock blocking reagent 100×). Antibodies working solution was prepared by diluting 40-fold d2 and Cryptate antibodies with detection buffer (e.g. 1520 L detection buffer+40 L d2-antibody stock solution+[…] Cryptate-antibody stock solution).
After 2 hours incubation, cell plates were taken out from the incubator. Medium was removed by plate washer, then 16 µL of supplemented lysis buffer was added 1× to each well and incubated for 30 minutes at room temperature under shaking (800 rpm/min). 4 µL of antibodies working solution was added to each well, covered with a top seal and incubated overnight in 23° C. incubator.
HTRF signal was read (665 nm and 615 nm) on Wallac 2104 EnVision® multilabel reader. Data were analyzed by XL fit software.
In general terms: TR-FRET usually uses a lanthanide donor and a delayed reading to cut background.

For the next test, the target named is LRRK2 wild type enzyme (Homo sapiens, UniProt Q5S007). Nature of the test: LRRK2 biochemical assay (LanthaScreen TR-FRET, LRRKtide substrate). As to conditions: LRRK2 inhibition; 3 nM LRRK2, 400 nM LRRKtide, 25 μM ATP, 120 min, 23° C. As for the experimental part:
10 mM compound solution was prepared in DMSO. An 11-point, 3-fold dilution was performed, with highest concentration at 10 μM. A 10 mM compound DMSO solution was added to Labcyte LDV plate and the compound concentration of source plate was 10 mM. The 1 st compound concentration of Inter plate (Labcyte 384 well PP plate) was 4.938×10^−1 mM which was prepared by transferring 1.5 μL of 10 mM compound from source plate to 28.9 μL DMSO. The 2nd compound concentration of Inter plate was 1.829×10^−2 mM which was prepared by transferring 60 nL of 10 mM compound from source plate to 32.7 μL DMSO. The 3rd compound concentration of Inter plate was 6.774×10^−4 mM which was prepared by transferring 2.5 nL of 10 mM compound from source plate to 36.9 μL DMSO. 100 nL of reference compound was dispensed in column 1 for low control wells and 100 nL of DMSO in column 24 for high control wells. Compounds were dispensed to column 2 to 23 of assay plate and backfilled with DMSO to a total volume of 100 nL.
A 2×LRRK2 enzyme solution (final concentration 3 nM) was prepared in assay buffer (Tris-HCl pH8.0: 50 mM, MgCl2: 5 mM, EDTA: 1 mM, Brij-35: 0.01%, 2 mM DTT). A 2× substrate solution was prepared: LRRK2 tide substrate (final concentration 400 nM) and ATP (final concentration 25 μM) in assay buffer. 5 μL 2×LRRK2 enzyme solution was dispensed to each well in assay plate by Multidrop. Assay plate was spun at 1,000 rpm for 1 min and incubated for 15 min at 23° C. 5 μL 2×ATP/LRRKtide solution was dispensed to each well in assay plate by Multidrop. Assay plate was spun at 1,000 rpm for 1 min and incubated for 120 min at 23° C.
A 2× detection solution was prepared: Tb-pERM (pLRRKtide) antibody (final concentration 0.25 nM) and EDTA (final concentration 10 mM) in TR-FRET dilution buffer. 10 μL 2× detection solution was dispensed to each well in assay plate to stop kinase reaction by Multidrop. Assay plate was spun at 1,000 rpm for 1 min and incubate for 30 min at 23° C. Assay plate was then read on Envision configured for LanthaScreen® TR-FRET.

T1 sequence (Q5S007 whole entry): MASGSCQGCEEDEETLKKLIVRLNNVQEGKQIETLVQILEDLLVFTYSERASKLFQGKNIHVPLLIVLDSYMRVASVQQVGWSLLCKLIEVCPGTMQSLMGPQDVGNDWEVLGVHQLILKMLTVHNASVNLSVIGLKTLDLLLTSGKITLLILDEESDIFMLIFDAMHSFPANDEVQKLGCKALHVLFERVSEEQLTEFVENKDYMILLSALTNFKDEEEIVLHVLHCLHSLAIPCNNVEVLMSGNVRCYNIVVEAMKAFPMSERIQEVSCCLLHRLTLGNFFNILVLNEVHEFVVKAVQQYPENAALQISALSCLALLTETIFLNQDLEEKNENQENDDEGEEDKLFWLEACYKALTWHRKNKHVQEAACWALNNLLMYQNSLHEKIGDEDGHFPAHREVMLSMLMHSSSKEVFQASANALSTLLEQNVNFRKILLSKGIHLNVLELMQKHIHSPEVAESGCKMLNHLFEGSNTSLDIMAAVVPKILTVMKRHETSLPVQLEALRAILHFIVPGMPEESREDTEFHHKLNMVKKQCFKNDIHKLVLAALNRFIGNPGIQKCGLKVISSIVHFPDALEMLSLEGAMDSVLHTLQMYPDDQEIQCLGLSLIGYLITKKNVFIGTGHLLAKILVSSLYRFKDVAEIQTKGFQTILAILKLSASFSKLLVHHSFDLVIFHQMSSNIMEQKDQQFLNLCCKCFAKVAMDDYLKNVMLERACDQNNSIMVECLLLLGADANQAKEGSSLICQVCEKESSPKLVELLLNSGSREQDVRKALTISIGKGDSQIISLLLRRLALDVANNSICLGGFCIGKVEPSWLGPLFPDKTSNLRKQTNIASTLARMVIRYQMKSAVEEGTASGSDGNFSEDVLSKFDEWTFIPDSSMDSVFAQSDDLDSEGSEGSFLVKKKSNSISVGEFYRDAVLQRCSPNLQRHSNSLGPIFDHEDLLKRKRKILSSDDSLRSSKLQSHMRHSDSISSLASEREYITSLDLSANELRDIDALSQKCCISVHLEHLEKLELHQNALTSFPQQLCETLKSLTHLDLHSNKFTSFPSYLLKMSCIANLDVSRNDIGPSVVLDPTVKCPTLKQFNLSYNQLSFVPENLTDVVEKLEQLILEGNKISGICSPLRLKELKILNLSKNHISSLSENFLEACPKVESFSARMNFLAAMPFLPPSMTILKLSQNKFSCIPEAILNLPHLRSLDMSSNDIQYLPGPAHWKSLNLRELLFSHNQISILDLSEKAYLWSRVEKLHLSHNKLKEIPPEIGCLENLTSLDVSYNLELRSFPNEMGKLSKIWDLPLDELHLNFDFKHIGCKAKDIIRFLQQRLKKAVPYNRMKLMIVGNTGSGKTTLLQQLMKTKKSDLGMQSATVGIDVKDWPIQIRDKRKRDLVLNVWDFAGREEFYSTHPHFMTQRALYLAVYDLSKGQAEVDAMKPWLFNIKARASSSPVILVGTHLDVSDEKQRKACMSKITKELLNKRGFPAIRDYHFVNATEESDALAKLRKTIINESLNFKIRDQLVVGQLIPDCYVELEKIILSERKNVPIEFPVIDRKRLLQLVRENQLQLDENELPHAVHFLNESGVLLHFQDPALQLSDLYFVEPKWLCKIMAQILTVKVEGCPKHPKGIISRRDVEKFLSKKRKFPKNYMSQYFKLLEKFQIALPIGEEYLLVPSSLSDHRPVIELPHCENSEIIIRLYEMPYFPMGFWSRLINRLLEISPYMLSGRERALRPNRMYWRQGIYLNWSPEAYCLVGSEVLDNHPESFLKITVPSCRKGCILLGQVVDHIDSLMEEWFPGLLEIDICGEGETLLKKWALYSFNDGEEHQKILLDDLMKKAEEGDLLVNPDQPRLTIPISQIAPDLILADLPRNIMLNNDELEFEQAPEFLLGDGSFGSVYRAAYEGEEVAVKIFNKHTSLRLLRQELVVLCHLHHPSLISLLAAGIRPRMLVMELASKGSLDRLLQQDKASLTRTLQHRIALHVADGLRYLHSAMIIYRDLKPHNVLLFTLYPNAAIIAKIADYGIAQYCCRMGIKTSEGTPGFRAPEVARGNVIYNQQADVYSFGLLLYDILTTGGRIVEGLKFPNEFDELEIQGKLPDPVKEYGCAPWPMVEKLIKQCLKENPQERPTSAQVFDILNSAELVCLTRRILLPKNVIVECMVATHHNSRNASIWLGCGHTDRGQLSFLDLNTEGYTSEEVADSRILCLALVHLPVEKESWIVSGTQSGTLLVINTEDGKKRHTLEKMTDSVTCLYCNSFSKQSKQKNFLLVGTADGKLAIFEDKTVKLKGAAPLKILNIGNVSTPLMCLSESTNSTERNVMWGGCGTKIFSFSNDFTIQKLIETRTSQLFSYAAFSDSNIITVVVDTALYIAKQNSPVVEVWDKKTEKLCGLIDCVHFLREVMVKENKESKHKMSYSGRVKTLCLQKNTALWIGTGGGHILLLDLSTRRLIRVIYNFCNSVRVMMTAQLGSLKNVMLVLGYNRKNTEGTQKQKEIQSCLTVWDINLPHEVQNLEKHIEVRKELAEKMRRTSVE
Sequence of LRRK2 wild type enzyme (Q5S007 whole entry): as above

Regarding `COC(=O)c1cn(Cc2nc3cnc4ccc(C#N)cc4c3n2[C@@H]2CCO[C@H](C)C2)ccc1=O` [Compound 18, methyl 1-({8-cyano-1-[(2R,4R)-2-methyloxan-4-yl]-1H-imidazo[4,5-c]quinolin-2-yl}methyl)-4-oxo-1,4-dihydropyridine-3-carboxylate], the IC50 was found to be 7020 nM in test [1] and 2.64 nM against LRRK2 wild type enzyme.

Regarding `COC(=O)c1cccn(Cc2nc3cnc4ccc(C#N)cc4c3n2[C@@H]2CCO[C@H](C)C2)c1=O` [Compound 19, methyl 1-({8-cyano-1-[(2R,4R)-2-methyloxan-4-yl]-1H-imidazo[4,5-c]quinolin-2-yl}methyl)-2-oxo-1,2-dihydropyridine-3-carboxylate], the results for the concentration for half-maximal inhibition (IC50) (in test [1]; against LRRK2 wild type enzyme) were 592 nM and 8.03 nM, respectively.

Regarding `C[C@@H]1C[C@H](n2c(Cc3cn(C4CN(S(C)(=O)=O)C4)nn3)nc3cnc4ccc(C#N)cc4c32)CCO1` [Compound 5, 2-{[1-(1-methanesulfonylazetidin-3-yl)-1H-1,2,3-triazol-4-yl]methyl}-1-[(2R,4R)-2-methyloxan-4-yl]-1H-imidazo[4,5-c]quinoline-8-carbonitrile], the 50% inhibitory concentration (IC50) in test [1] is 324 nM; on LRRK2 wild type enzyme, 0.635 nM.

On to `C[C@@H]1C[C@H](n2c(Cc3noc(N4CCN(C)C(=O)C4)n3)nc3cnc4ccc(C#N)cc4c32)CCO1` [Compound 9, 2-{[5-(4-methyl-3-oxopiperazin-1-yl)-1,2,4-oxadiazol-3-yl]methyl}-1-[(2R,4R)-2-methyloxan-4-yl]-1H-imidazo[4,5-c]quinoline-8-carbonitrile], for which the results for the half-inhibitory concentration (IC50) (in test [1]; on LRRK2 wild type enzyme) were 616 nM and 1.69 nM, respectively.

Regarding `C[C@@H]1CC(n2c(Cn3nccc3NS(C)(=O)=O)nc3cnc4ccc(C#N)cc4c32)CCO1` (stereo in doubt) [Compound 16, N-(1-{[8-cyano-1-(2-methyloxan-4-yl)-1H-imidazo[4,5-c]quinolin-2-yl]methyl}-1H-pyrazol-5-yl)methanesulfonamide], at LRRK2 wild type enzyme, the IC50 is 671 nM.

As for `C[C@@H]1C[C@H](n2c(Cc3cn([C@H]4C[C@@H](S(C)(=O)=O)C4)nn3)nc3cnc4ccc(C#N)cc4c32)CCO1` [Compound 21], the IC50 in test [1] was 1770 nM; against LRRK2 wild type enzyme, 1.41 nM.

On to `C[C@@H]1C[C@H](n2c(Cc3cnn(C4COC4)c3)nc3cnc4ccc(C#N)cc4c32)CCO1` [Compound 8, 1-[(2R,4R)-2-methyloxan-4-yl]-2-{[1-(oxetan-3-yl)-1H-pyrazol-4-yl]methyl}-1H-imidazo[4,5-c]quinoline-8-carbonitrile], for which the IC50 in test [1] was 618 nM; at LRRK2 wild type enzyme, 6.47 nM.

Turning to `C[C@@H]1C[C@H](n2c(Cc3n[nH]c(=O)o3)nc3cnc4ccc(C#N)cc4c32)CCO1` [Compound 7, 1-[(2R,4R)-2-methyloxan-4-yl]-2-[(5-oxo-4,5-dihydro-1,3,4-oxadiazol-2-yl)methyl]-1H-imidazo[4,5-c]quinoline-8-carbonitrile], the values for the IC50 (in test [1]; at LRRK2 wild type enzyme) were 466 nM and 1.49 nM, respectively.

As to `C[C@@H]1C[C@H](n2c(Cc3noc(C4(S(C)(=O)=O)CC4)n3)nc3cnc4ccc(C#N)cc4c32)CCO1` [Compound 13, 2-{[5-(1-methanesulfonylcyclopropyl)-1,2,4-oxadiazol-3-yl]methyl}-1-[(2R,4R)-2-methyloxan-4-yl]-1H-imidazo[4,5-c]quioline-8-carbonitrile], the 50% inhibitory concentration (IC50) in test [1] was 23.7 nM; on LRRK2 wild type enzyme, 0.449 nM.

Turning to `C[C@@H]1C[C@H](n2c(Cc3noc(C4(S(C)(=O)=O)CC4)n3)nc3cnc4ccc(Cl)cc4c32)CCO1` [Compound 10, 3-({8-chloro-1-[(2R,4R)-2-methyloxan-4-yl]-1H-imidazo[4,5-c]quinolin-2-yl}methyl)-5-(1-methanesulfonylcyclopropyl)-1,2,4-oxadiazole], the IC50 came to 10.3 nM in test [1] and 0.299 nM against LRRK2 wild type enzyme.

As to `C[C@@H]1C[C@H](n2c(Cn3ccc(NS(C)(=O)=O)n3)nc3cnc4ccc(C#N)cc4c32)CCO1` [Compound 4, N-(1-{[8-cyano-1-(2-methyloxan-4-yl)-1H-imidazo[4,5-c]quinolin-2-yl]methyl}-1H-pyrazol-3-yl)methanesulfonamide], the concentration for half-maximal inhibition (IC50) in test [1] was determined as 458 nM; on LRRK2 wild type enzyme, 0.888 nM.

Turning to `C[C@@H]1C[C@H](n2c(Cc3noc(N4CCC(O)C4)n3)nc3cnc4ccc(C#N)cc4c32)CCO1` (mixture of isomers) [Compound 12, 2-({5-[(3RS)-3-hydroxypyrrolidin-1-yl]-1,2,4-oxadiazol-3-yl}methyl)-1-[(2R,4R)-2-methyloxan-4-yl]-1H-imidazo[4,5-c]quinoline-8-carbonitrile], the IC50 in test [1] worked out at 811 nM; on LRRK2 wild type enzyme it was 1.36 nM.

`C[C@@H]1C[C@H](n2c(Cn3cccc(C(=O)O)c3=O)nc3cnc4ccc(C#N)cc4c32)CCO1` [Compound 2, 1-({8-cyano-1-[(2R,4R)-2-methyloxan-4-yl]-1H-imidazo[4,5-c]quinolin-2-yl}methyl)-2-oxo-1,2-dihydropyridine-3-carboxylic acid]: the concentration for half-maximal inhibition (IC50) against LRRK2 wild type enzyme amounted to 106 nM.

For the compound `C[C@@H]1C[C@H](n2c(Cc3cc(CCS(C)(=O)=O)on3)nc3cnc4ccc(C#N)cc4c32)CCO1` [Compound 20, 2-{[5-(2-methanesulfonylethyl)-1,2-oxazol-3-yl]methyl}-1-[(2R,4R)-2-methyloxan-4-yl]-1H-imidazo[4,5-c]quinoline-8-carbonitrile], the IC50 against LRRK2 wild type enzyme was 0.596 nM.

On to `C[C@@H]1C[C@H](n2c(Cc3ccc(S(C)(=O)=O)cn3)nc3cnc4ccc(C#N)cc4c32)CCO1` [Compound 22, 2-[(5-methanesulfonylpyridin-2-yl)methyl]-1-[(2R,4R)-2-methyloxan-4-yl]-1H-imidazo[4,5-c]quinoline-8-carbonitrile], for which the midpoint of inhibition against LRRK2 wild type enzyme, the IC50, lay at 0.579 nM.

As a reminder, the IC50 is the point on the concentration scale where inhibition reaches its midpoint.
